Assay results taken from ChEMBL document CHEMBL1641535, “Design and synthesis of potent macrocyclic renin inhibitors” (Bioorg Med Chem Lett, 2011).

Tests used:
[1] = system: MDCK; experiment: Efflux ratio of permeability from […] side of wild type MDCK2 cells; type: ADME, cell-based, Canis lupus familiaris; conditions: dog
[2] = system: MDCK; experiment: Efflux ratio of permeability from […] side of MDCK2 cells over expressing human Pgp; type: ADME, cell-based, Canis lupus familiaris; conditions: dog
[3] = target: Beta-secretase 1 (Homo sapiens, UniProt P56817); experiment: Inhibition of BACE1
[4] = Intrinsic clearance in human liver microsomes; type: ADME, Microsome
[5] = target: Cathepsin D (Homo sapiens, UniProt P07339); experiment: Inhibition of cathepsin D
[6] = target: T1, Renin (Homo sapiens, UniProt P00797); experiment: Inhibition of renin
T1 sequence (P00797 whole entry): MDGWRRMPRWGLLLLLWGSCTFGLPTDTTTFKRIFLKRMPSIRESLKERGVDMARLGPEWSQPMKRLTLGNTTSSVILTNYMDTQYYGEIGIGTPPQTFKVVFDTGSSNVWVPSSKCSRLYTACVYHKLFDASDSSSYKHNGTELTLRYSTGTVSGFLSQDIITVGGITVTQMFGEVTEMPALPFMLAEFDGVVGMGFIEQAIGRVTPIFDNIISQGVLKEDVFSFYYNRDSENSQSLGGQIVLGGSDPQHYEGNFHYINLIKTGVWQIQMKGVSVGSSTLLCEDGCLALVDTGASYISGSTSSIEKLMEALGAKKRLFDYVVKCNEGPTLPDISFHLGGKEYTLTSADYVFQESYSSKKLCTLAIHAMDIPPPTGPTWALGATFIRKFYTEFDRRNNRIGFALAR

[7] = target: T1, Renin; experiment: Inhibition of human plasma renin; type: cell-free
[8] = system: human Pgp; experiment: Apparent permeability across MDCK cells transfected with human Pgp; type: ADME, cell-based, Canis lupus familiaris; conditions: dog, MDCK-MDR1
[9] = Apparent permeability across wild type MDCK cells; type: ADME, cell-based, Canis lupus familiaris; conditions: dog

Chain of Cathepsin D (P07339 65-162 limits assumed): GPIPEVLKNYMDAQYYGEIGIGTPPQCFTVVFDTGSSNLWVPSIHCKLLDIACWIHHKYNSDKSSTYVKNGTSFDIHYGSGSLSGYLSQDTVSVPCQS
Chain of Cathepsin D (P07339 169-412 limits assumed): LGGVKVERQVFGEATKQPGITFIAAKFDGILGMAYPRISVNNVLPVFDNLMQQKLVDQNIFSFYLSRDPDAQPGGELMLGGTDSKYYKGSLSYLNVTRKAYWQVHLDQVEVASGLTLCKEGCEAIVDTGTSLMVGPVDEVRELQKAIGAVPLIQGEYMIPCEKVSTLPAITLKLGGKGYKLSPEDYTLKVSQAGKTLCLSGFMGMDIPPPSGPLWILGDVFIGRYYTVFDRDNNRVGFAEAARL
Chain of Beta-secretase 1 (P56817 whole entry): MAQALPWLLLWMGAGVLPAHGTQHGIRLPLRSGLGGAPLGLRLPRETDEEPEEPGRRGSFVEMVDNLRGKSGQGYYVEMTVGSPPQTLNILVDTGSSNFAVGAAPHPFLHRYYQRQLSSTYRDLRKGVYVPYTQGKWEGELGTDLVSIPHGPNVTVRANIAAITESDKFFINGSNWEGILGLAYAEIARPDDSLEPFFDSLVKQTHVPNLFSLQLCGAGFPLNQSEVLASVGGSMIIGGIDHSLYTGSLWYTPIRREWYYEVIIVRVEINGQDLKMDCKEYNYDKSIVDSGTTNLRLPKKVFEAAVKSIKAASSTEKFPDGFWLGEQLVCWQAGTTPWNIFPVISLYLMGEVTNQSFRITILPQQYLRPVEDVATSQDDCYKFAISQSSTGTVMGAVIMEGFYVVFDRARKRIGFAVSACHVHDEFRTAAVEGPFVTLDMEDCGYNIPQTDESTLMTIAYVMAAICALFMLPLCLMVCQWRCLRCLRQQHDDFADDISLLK

SMILES	IC50 [3] [nM]	Ki [5] [nM]	Ki [6] [nM]	further results
COCCCOc1cc(C[C@@H](C[C@H](N)[C@@H](O)C[C@H](C(=O)NCC(C)(C)C(N)=O)C(C)C)C(C)C)ccc1OC				Ratio [1]: 0.7; Ratio [2]: 1.5
CC(C)[C@H](C[C@H](O)[C@H](COCc1ccccc1)NC(=O)c1cc(C(=O)N[C@H](C)c2ccccc2)cc(N(C)S(C)(=O)=O)c1)C(=O)N[C@H](C(=O)NCc1ccccc1)C(C)C	30	3.3	21	microsomal CLint [4]: 260 µL/min/mg; IC50 ([7]; read-out: IC50): 38 nM
CC(C)CNC(=O)[C@@H](C[C@H](O)[C@@H]1COCc2cccc(c2)C(c2ccccc2)NC(=O)c2cc(cc(N(C)S(C)(=O)=O)c2)C(=O)N1)C(C)C (some centres not stated)	3700	200		Papp [8]: 0.1 ×10⁻⁶ cm/s; IC50 [7]: 56 nM; Papp [9]: 0.1 ×10⁻⁶ cm/s
CNC(=O)[C@@H](C[C@H](O)[C@@H]1COCc2cccc(c2)C(c2ccccc2)NC(=O)c2cc(cc(N(C)S(C)(=O)=O)c2)C(=O)N1)C(C)C (some centres not stated)	> 10000	1700	340	
COc1ccc(C2NC(=O)c3cc(cc(N(C)S(C)(=O)=O)c3)C(=O)N[C@H]([C@@H](O)C[C@H](C(=O)NCC(C)C)C(C)C)COCc3cccc2c3)cc1 (some centres not stated)	3100	760	130	
COCCCC1NC(=O)c2cc(cc(N(C)S(C)(=O)=O)c2)C(=O)N[C@H]([C@@H](O)C[C@H](C(=O)NCC(C)C)C(C)C)COCc2cccc1c2 (some centres not stated)	1900	460	450	
COCCOC1CCc2cc(cc(N(C)S(C)(=O)=O)c2)C(=O)N[C@H]([C@@H](O)C[C@H](C(=O)NCC(C)C)C(C)C)COCc2cccc1c2 (some centres not stated)	> 10000	> 5000	> 5000	
COCCOC1CCCc2cc(cc(N(C)S(C)(=O)=O)c2)C(=O)N[C@H]([C@@H](O)C[C@H](C(=O)NCC(C)C)C(C)C)COCc2cccc1c2 (some centres not stated)	> 10000	> 5000	940	
